Assay results as given in US11524006B2, “Crenolanib for treating TRK kinase associated proliferative disorders” (Arog Pharmaceuticals, Inc., priority 2020, dated 2022).

What was measured:
[1] = system: TRK fusion positive cancers; conditions: cited from earlier work
[2] = target: T1, TRKA-L657M (Homo sapiens, UniProt P04629, L657M); test: Reaction Biology HotSpot Kinase assay, direct enzyme phosphorylation; assay type: biochemical; conditions: Other Mutant TRKA-L657M
T1 construct: purchased Reaction Biology (HotSpot Kinase assay panel)
T1 sequence (P04629 33-796 L657M): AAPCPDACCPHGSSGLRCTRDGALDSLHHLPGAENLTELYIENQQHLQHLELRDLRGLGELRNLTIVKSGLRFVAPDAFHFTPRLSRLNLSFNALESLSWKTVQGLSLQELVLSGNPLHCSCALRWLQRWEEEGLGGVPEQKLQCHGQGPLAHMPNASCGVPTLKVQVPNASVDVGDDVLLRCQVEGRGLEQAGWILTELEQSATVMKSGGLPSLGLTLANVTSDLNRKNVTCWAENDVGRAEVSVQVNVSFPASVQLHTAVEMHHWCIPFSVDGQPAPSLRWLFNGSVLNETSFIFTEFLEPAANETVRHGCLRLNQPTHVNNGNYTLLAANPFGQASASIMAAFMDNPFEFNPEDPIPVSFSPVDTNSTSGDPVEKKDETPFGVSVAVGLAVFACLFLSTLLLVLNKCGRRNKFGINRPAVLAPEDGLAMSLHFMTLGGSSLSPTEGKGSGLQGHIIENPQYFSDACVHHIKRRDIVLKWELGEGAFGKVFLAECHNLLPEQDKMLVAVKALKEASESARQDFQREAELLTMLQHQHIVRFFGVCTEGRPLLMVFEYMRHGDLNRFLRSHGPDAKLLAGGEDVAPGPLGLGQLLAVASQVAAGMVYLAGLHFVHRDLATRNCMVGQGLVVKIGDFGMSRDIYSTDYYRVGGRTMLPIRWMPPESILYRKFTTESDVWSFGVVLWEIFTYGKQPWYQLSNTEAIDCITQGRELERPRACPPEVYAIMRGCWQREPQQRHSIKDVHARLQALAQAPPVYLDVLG
Description: (§1) Direct enzyme phosphorylation assay. The Reaction Biology HotSpot Kinase assay was used to screen the present invention against a panel of normal TRKA, TRKB, and TRKC and mutated TRK kinases. For assays of all kinases, the TRK enzyme was prepared in base reaction buffer (20 mM Hepes (pH 7.5), 10 mM MgCl2, 1 mM EGTA, 0.02% Brij35, 0.02 mg/ml BSA, 0.1 mM Na3VO4, 2 mM DTT, 1% DMSO). The reaction was initiated by the addition of 33P-ATP (10 μCi/μL) into the mixture. The reaction mixture was incubated for 120 minutes at room temperature. Radioactivity was detected by filter-binding method, and kinase activity expressed as the percent remaining kinase activity in test samples compared to vehicle reactions. IC50 values and curve fitting were obtained using Prism (GraphPad Software).
(§2) The activity of the besylate salt of the present invention was determined using a direct enzymatic Reaction Biology HotSpot Kinase assay. All IC50 values are presented in nanomolar concentration. In the direct enzymatic measurement assay, the IC50 of the besylate salt of the current invention against the various TRK kinases is shown in Table 1.

[3] = target: T2, TRKA-G667C (Homo sapiens, UniProt P04629, G667C); test: as above; assay type: biochemical; conditions: xDFG Mutant TRKA-G667C
T2 construct: purchased Reaction Biology (HotSpot Kinase assay panel)
T2 sequence (P04629 33-796 G667C): as the sequence (P04629 33-796 L657M) above, with M625L, G635C counted along it
Description: as §1, §2

[4] = target: T3, TRKC-G696A (Homo sapiens, UniProt Q16288, G696A); test: as above; assay type: biochemical; conditions: xDFG Mutant TRKC-G696A
T3 construct: purchased Reaction Biology (HotSpot Kinase assay panel)
T3 sequence (Q16288 32-839 G696A): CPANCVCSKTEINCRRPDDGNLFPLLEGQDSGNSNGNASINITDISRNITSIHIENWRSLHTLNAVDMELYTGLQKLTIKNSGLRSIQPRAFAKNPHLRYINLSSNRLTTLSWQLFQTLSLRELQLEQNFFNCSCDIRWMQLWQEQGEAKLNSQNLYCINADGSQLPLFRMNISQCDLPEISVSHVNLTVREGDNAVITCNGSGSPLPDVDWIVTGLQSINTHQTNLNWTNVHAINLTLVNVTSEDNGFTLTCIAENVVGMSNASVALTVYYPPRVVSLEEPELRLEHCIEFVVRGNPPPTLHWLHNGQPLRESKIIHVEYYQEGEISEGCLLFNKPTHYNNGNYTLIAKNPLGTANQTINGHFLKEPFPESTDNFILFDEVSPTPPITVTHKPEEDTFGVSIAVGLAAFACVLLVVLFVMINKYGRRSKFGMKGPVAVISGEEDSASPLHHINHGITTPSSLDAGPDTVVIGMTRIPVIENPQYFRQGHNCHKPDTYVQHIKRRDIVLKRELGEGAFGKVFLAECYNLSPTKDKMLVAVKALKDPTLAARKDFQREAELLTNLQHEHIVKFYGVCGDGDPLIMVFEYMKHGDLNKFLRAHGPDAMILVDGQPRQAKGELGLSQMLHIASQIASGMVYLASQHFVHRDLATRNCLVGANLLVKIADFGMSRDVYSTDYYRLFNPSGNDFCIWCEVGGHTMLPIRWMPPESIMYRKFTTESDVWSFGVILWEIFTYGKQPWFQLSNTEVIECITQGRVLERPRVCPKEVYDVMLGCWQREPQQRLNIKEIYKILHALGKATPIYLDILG
Description: as §1, §2

[5] = target: T4, TRKC-L686M (Homo sapiens, UniProt Q16288, L686M); test: as above; assay type: biochemical; conditions: Other Mutant TRKC-L686M
T4 construct: purchased Reaction Biology (HotSpot Kinase assay panel)
T4 sequence (Q16288 32-839 L686M): as the sequence (Q16288 32-839 G696A) above, with L655M, A665G counted along it
Description: as §1, §2

[6] = target: T5, TRKA-A608D (Homo sapiens, UniProt P04629, A608D); test: as above; assay type: biochemical; conditions: Other Mutant TRKA-A608D
T5 construct: purchased Reaction Biology (HotSpot Kinase assay panel)
T5 sequence (P04629 33-796 A608D): as the sequence (P04629 33-796 L657M) above, with A576D, M625L counted along it
Description: as §1, §2

[7] = target: T6, TRKA-G667S (Homo sapiens, UniProt P04629, G667S); test: as above; assay type: biochemical; conditions: xDFG Mutant TRKA-G667S
T6 construct: purchased Reaction Biology (HotSpot Kinase assay panel)
T6 sequence (P04629 33-796 G667S): as the sequence (P04629 33-796 L657M) above, with M625L, G635S counted along it
Description: as §1, §2

[8] = target: T7, TRKA-TPM3 (Homo sapiens, UniProt P04629); test: as above; assay type: biochemical; conditions: Fusion TRKA-TPM3
T7 construct: fused on or other part: N-terminal part of tropomyosin 3 (coiled-coil dimerisation part); P06753 (Tropomyosin alpha-3 chain)
T7 sequence (P04629 510-796 limits assumed): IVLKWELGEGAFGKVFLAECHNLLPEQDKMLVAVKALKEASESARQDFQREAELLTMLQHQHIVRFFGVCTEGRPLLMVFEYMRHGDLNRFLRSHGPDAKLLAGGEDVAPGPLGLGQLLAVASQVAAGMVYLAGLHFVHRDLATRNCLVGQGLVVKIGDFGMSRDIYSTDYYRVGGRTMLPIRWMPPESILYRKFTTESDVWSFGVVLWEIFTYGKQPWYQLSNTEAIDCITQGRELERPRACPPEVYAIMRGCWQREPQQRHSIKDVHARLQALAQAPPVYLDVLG
Description: as §1, §2

[9] = target: T8, TRKA-TPR (Homo sapiens, UniProt P04629); test: as above; assay type: biochemical; conditions: Fusion TRKA-TPR
T8 construct: fused on or other part: N-terminal coiled-coil part of TPR (translocated promoter region protein); P12270 (Nucleoprotein TPR)
T8 sequence (P04629 510-796 limits assumed): as above
Description: as §1, §2

[10] = target: T9, TRKA-TFG (Homo sapiens, UniProt P04629); test: as above; assay type: biochemical; conditions: Fusion TRKA-TFG
T9 construct: partner gene encoding one or more dimerization domains with the tyrosine kinase domains of one of the TRK genes; TFG (fusion partner); purchased Reaction Biology (HotSpot Kinase assay panel); the other entry of the earlier key: TFG (Q92734, Protein TFG)
T9 sequence (P04629 with tags, fused parts or gaps): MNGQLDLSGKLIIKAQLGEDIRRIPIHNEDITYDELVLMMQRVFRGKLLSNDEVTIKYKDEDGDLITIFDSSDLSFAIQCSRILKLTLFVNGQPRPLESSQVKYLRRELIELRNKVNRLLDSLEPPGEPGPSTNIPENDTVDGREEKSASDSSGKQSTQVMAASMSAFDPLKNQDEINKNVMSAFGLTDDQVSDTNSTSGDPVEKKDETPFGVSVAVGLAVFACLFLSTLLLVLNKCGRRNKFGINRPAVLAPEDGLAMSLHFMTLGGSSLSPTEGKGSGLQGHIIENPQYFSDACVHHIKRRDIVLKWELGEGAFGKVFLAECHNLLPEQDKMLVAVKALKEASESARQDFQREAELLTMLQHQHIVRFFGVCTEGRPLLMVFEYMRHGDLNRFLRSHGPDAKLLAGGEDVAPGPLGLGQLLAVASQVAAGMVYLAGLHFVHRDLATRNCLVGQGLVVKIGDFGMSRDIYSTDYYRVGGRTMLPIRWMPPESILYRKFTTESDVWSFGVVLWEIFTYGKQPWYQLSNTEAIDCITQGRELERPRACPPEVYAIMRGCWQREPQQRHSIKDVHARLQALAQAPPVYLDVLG
Description: as §1, §2

Structure (SMILES) | clinical response in assessed patients ([1]; assessed patients) | patients progressed within 1 year ([1]; within 1 year) | IC50 [2] | IC50 [3] | IC50 [4] | IC50 [5] | IC50 [6] | IC50 [7] | IC50 [8] | IC50 [9] | IC50 [10]
O=C(Nc1cnn2ccc(N3CCC[C@@H]3c3cc(F)ccc3F)nc12)N1CC[C@H](O)C1 [Larotrectinib] | 75% | 45% | – | – | – | – | – | – | – | – | –
CC1(COc2ccc3c(c2)ncn3-c2ccc3cccc(N4CCC(N)CC4)c3n2)COC1 [crenolanib besylate, Crenolanib Besylate] | – | – | 79.7 nM | 5 nM | 5.69 nM | 184 nM | 38.7 nM | 4.52 nM | 4.34 nM | 3.98 nM | 3.95 nM
